In brackets after ≈: the same amount, converted by molar mass.
Legend:
atrial strip = experiment: Cardiotonic activity, Test 2: contractile force and heart rate of isolated atrial strip; set-up: species or system Male Hartley strain guinea-pigs; conditions: Cavia porcellus, 0.5 h; 1 × 10^-5 g/ml; 30° C.; observed for 30 min; percentage before and after dosing
Description: Male Hartley strain guinea-pigs, weighing 530-600 g, were killed by bleeding and the heart was removed. An atrial strip was removed and suspended in an organ bath containing 50 ml of Tyrode's solution maintained at 30° C. and aerated with a gas mixture of 95% O2 -5% CO2. The atrium was connected to a strain gauge under an initial tension of 0.4-0.6 g. […] The effect was expressed as percentage values before and after dosing.

[1] = system: Platelet aggregation (9,11-azo PGH2); experiment: Anti-platelet activity, Test 4: 9,11-azo PGH2-induced platelet aggregation in platelet rich plasma; type: cell-based, rabbits; conditions: Oryctolagus cuniculus, rabbit PRP, 9,11-azo PGH2 1.0 μM, 37° C.
Description: The blood was collected from the carotid artery of rabbits into plastic vessels containing 0.1 volume of 3.8% sodium citrate. Platelet rich plasma (PRP) was prepared by centrifugation at 150 g for 15 minutes. Platelet aggregation was investigated by using the turbidimetric method with an aggregometer (NKK HEMATRACER 1). To the 225 μl of PRP, 25 μl of test compound solution was added, and then stirred at 1000 rpm for 2 minutes at 37° C. To the solution 5 μl of 9,11-azo PGH2 (final 1.0 μM) was added as an aggregating inducer.

carrageenin foot edema = experiment: Anti-inflammatory activity, Test 5: carrageenin foot edema; type: in vivo, Male Sprague-Dawley rats; conditions: 32 mg/kg oral, 60 minutes before phlogogen; edema volume 3 hours after phlogogen; 1% carrageenin
Description: Male Sprague-Dawley rats weighing about 180 g were used in groups of five. Paw edema was induced by subplantar injection of 1% carrageenin (0.1 ml/rat) into the right hind paw in carrageenin foot edema. The test compound was suspended in methylcellulose and administered orally 60 minutes before halogogen. Paw volume was measured with plethysmometer (Ugo Basil Co., Ltd.) by water displacement immersing the paw to the lateral malleolus. The difference of paw volume before and 3 hours after the phlogogen was designated as edema volume.
The data was analyzed statistically by student's t-test.

[2] = system: left ventricular pressure (dp/dt max); experiment: Cardiotonic activity, Test 1: dp/dt max change in anesthetized dogs; type: in vivo, Mongrel dogs; conditions: 1.0 mg/kg, injected into the femoral vein
Description: Mongrel dogs of either sex were anesthetized with sodium pentobarbital, 35 mg/kg, i.p.. The animals were allowed to breathe spontaneously. The left carotid artery was isolated and a catheter (USCI, #8F) filled with heparinized saline was inserted and advanced into the left ventricle. The catheter was connected to a pressure transducer (Nihonkohden, MPU-0.5A) to measure the left ventricular pressure, from which dp/dt max was derived by analog computing. The measure the systemic blood pressure the left femoral artery was cannulated. The blood pressure pulse was used to trigger a heart rate meter. Another catheter was positioned in the vena cave through right femoral vein for injection of drugs. Systemic blood pressure, left ventricular pressure, dp/dt max and heart rate was recorded simultaneously on a polygram (Nihonkohden, RJG-4008).
Test compound was dissolved in distilled water (0.2 ml/kg) or dimethyl sulfoxide (0.04 ml/kg) and injected into the femoral vein. The parameters after dosing were compared with those during the predosing period.
Test results were represented in terms of percentage of dp/dt max changes (dp/dt M.C.) calculated by following formula. [formula]

[3] = system: Platelet aggregation (collagen); experiment: Anti-platelet activity, Test 3: collagen-induced platelet aggregation in blood after oral administration; type: in vivo, Male Sprague-Dawley rats; conditions: 32 mg/kg oral, blood collected one hour after; collagen 5.0 μg/ml
Description: Male Sprague-Dawley rats weighing about 250 g were used after overnight fasting. One hour after oral administration of test compound or vehicle of test compound (control), blood was collected into a tube containing 0.1 vol. of 3.8% sodium citrate. To the 0.45 ml of blood, 0.05 ml of collagen (final concentration 5.0 μg/ml) was added and then incubated for 5 min. at 37° C. under shaking. The reaction was terminated by addition of 1 ml of 10 mM phosphate buffered saline (pH 7.4) containing 11.5 mM EDTA and 1% formalin. The reaction mixture was centrifuged at 70 xg for 5 min. and platelet count of upper phase was measured by Technicon Auto Analizer.
Platelet aggregation was calculated according to the following formula: [formula] A: Platelet count after addition of vehicle of collagen B: Platelet count after addition of collagen.
Inhibition of the test compound was calculated according to the following formula. [formula] C: Platelet aggregation (%) of control D: Platelet aggregation (%) of Test compound.

SMILES: CCc1[nH]c(-c2ccc(OC)cc2OC)nc1-c1ccncc1 [Compound f, 2-(2,4-Dimethoxyphenyl)-5-ethyl-4-(4-pyridyl)imidazole]
- activation at 10 µg/mL (atrial strip): 61.1%
- inhibition at 10 µg/mL (atrial strip): 30.7%

SMILES: COc1cc(Cl)ccc1-c1nc(-c2cccnc2)c(C)[nH]1 [Compound k, 2-(4-Chloro-2-methoxyphenyl)-5-methyl-4-(3-pyridyl)imidazole]
- IC50 [1]: 0.16 µg/mL (≈ 0.534 µM)
- Inhibition (paw edema) (carrageenin foot edema): 72.3%

SMILES: COc1ccc(-c2nc(-c3ccncc3)c(C)[nH]2)c(OC)c1 [Compound e, 2-(2,4-Dimethoxyphenyl)-5-methyl-4-(4-pyridyl)imidazole]
- activation at 10 µg/mL (atrial strip): 58%
- inhibition at 10 µg/mL (atrial strip): 26.8%

SMILES: CCc1nc(-c2ccc(OC)cc2OC)[nH]c1-c1cccnc1 [Compound b, 2-(2,4-Dimethoxyphenyl)-4-ethyl-5-(3-pyridyl)imidazole]
- dp/dt M.C. (percentage of dp/dt max changes) [2]: 133%

SMILES: COc1cc(SC)ccc1-c1nc(-c2cccnc2)c(C)[nH]1 [Compound c, 2-(2-Methoxy-4-methylthiophenyl)-5-methyl-4-(3-pyridyl)imidazole]
- dp/dt M.C. (percentage of dp/dt max changes) [2]: 167%

SMILES: COc1cc(NC(C)=O)c(Cl)cc1-c1nc(-c2cccnc2)c(C)[nH]1 [Compound g, 2-(4-Acetamido-5-chloro-2-methoxyphenyl)-5-methyl-4-(3-pyridyl)imidazole]
- Inhibition (platelet aggregation) [3]: 87.6%

SMILES: COc1ccc(-c2nc(-c3cccnc3)c(C)[nH]2)c(OC)c1 [Compound a, 2-(2,4-Dimethoxyphenyl)-5-methyl-4-(3-pyridyl)imidazole]
- dp/dt M.C. (percentage of dp/dt max changes) [2]: 82%
- activation at 10 µg/mL (atrial strip): 45%
- inhibition at 10 µg/mL (atrial strip): 21.2%

SMILES: CC(=O)Nc1ccccc1-c1nc(C)c(-c2cccnc2)[nH]1 [Compound j, 2-(2-Acetamidophenyl)-4-methyl-5-(3-pyridyl)imidazole]
- IC50 [1]: 0.39 µg/mL (≈ 1.33 µM)
- Inhibition (platelet aggregation) [3]: 91.3%

SMILES: COc1ccccc1-c1nc(-c2cccnc2)c(C)[nH]1 [Compound h, 2-(2-Methoxyphenyl)-5-methyl-4-(3-pyridyl)imidazole]
- Inhibition (paw edema) (carrageenin foot edema): 62.7%

SMILES: CCc1[nH]c(-c2ccc(OC)c(OC)c2)nc1-c1ccccn1 [Compound d, 2-(3,4-Dimethoxyphenyl)-5-ethyl-4-(2-pyridyl)imidazole]
- activation at 10 µg/mL (atrial strip): 51.6%
- inhibition at 10 µg/mL (atrial strip): 14.1%

SMILES: Cc1nc(-c2ccccc2F)[nH]c1-c1cccnc1 [Compound i, 2-(2-Fluorophenyl)-4-methyl-5-(3-pyridyl)imidazole]
- IC50 [1]: 0.11 µg/mL (≈ 0.434 µM)
- Inhibition (platelet aggregation) [3]: 100%

From US4822805A, “Pyridyl-imidazole compounds which have useful pharmaceutical activity” (Fujisawa Pharmaceutical Co., Ltd., priority 1986, dated 1989)
